Experiments:
Format in all cases: in vivo
[1] = tested on: sedge, umbrella (small-flower umbrella sedge, Cyperus difformis); assay: Test B flooded paddy test; details: Cyperus difformis, 250 g ai/ha, Flood; 0 to 100 scale where 0 is no effect and 100 is complete control; read-out: Sedge, Umbrella plant response rating
Summary of the method: (§1)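 2-leaf plants; pots flooded 3 cm over soil; cpd added to paddy water; depth held; greenhouse 13–15 d; visual rating vs controls, 0 = no effect, 100 = complete control.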

[2] = tested on: barnyardgrass (Echinochloa crus-galli); assay: Test B flooded paddy test; details: Echinochloa crus-galli, 250 g ai/ha, Flood; 0 to 100 scale where 0 is no effect and 100 is complete control; read-out: Barnyardgrass plant response rating
Summary of the method: as §1

rice (Oryra sativa) = assay: Test B flooded paddy test; details: Oryza sativa, 250 g ai/ha, Flood; 0 to 100 scale where 0 is no effect and 100 is complete control; read-out: Rice plant response rating
Summary of the method: as §1

[3] = tested on: ducksalad (Heteranthera limosa); assay: Test B flooded paddy test; details: Heteranthera limosa, 250 g ai/ha, Flood; 0 to 100 scale where 0 is no effect and 100 is complete control; read-out: Ducksalad plant response rating
Summary of the method: as §1

[4] = tested on: Galium (catchweed bedstraw, Galium aparine); assay: Test A postemergence; details: Galium, post-emergence, 240 h, Postemergence, read-out: Galium plant response rating (0 to 100 scale)
Summary of the method: (§2)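 Preemergence directed soil spray on seeded pots, or postemergence application to plants 2–10 cm, one- to two-leaf. Solvent mixture non-phytotoxic, with surfactant. Scored ~10 d later, visually, 0–100 vs untreated.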

[5] = tested on: barnyardgrass (Echinochloa crus-galli); assay: Test A postemergence; details: Echinochloa crus-galli, post-emergence, 240 h, Postemergence
Summary of the method: as §2

[6] = tested on: blackgrass (Alopecurus myosuroides); assay: Test A postemergence; details: Alopecurus myosuroides, post-emergence, 240 h, Postemergence, read-out: Blackgrass plant response rating (0 to 100 scale)
Summary of the method: as §2

[7] = tested on: ryegrass, Italian (Italian ryegrass, Lolium multiflorum); assay: Test A postemergence; details: Lolium multiflorum, post-emergence, 240 h, Postemergence, read-out: Ryegrass, Italian plant response rating (0 to 100 scale)
Summary of the method: as §2

corn (Zea mays) = assay: Test A postemergence; details: Zea mays, post-emergence, 240 h, Postemergence, read-out: Corn plant response rating (0 to 100 scale)
Summary of the method: as §2

[8] = tested on: pigweed (Amaranthus retroflexus); assay: Test A postemergence; details: Amaranthus retroflexus, post-emergence, 240 h, Postemergence, read-out: Pigweed plant response rating (0 to 100 scale)
Summary of the method: as §2

[9] = tested on: wheat (Triticum aestivum); assay: Test A postemergence; details: Triticum aestivum, post-emergence, 240 h, Postemergence, read-out: Wheat plant response rating (0 to 100 scale)
Summary of the method: as §2

[10] = tested on: ragweed (common ragweed, Ambrosia elatior); assay: Test A postemergence; details: Ambrosia artemisiifolia, post-emergence, 240 h, Postemergence, read-out: Ragweed plant response rating (0 to 100 scale)
Summary of the method: as §2

[11] = tested on: giant foxtail (Setaria faberii); assay: Test A postemergence; details: Setaria faberi, post-emergence, 240 h, Postemergence, read-out: Foxtail, Giant plant response rating (0 to 100 scale)
Summary of the method: as §2

Kochia (Kochia scoparia) [12] = assay: Test A postemergence; details: Bassia scoparia, post-emergence, 240 h, Postemergence, read-out: Kochia plant response rating (0 to 100 scale)
Summary of the method: as §2

[13] = tested on: barnyardgrass (Echinochloa crus-galli); assay: Test A preemergence; details: Echinochloa crus-galli, pre-emergence, 240 h, 0 to 100 scale where 0 is no effect and 100 is complete control, read-out: Barnyardgrass plant response rating
Summary of the method: as §2

[14] = tested on: ryegrass, Italian (Italian ryegrass, Lolium multiflorum); assay: Test A preemergence; details: Lolium multiflorum, pre-emergence, 240 h, 0 to 100 scale where 0 is no effect and 100 is complete control, read-out: Ryegrass, Italian plant response rating
Summary of the method: as §2

[15] = tested on: pigweed (Amaranthus retroflexus); assay: Test A preemergence; details: Amaranthus retroflexus, pre-emergence, 240 h, 0 to 100 scale where 0 is no effect and 100 is complete control, read-out: Pigweed plant response rating
[16] = tested on: ragweed (common ragweed, Ambrosia elatior); assay: Test A preemergence; details: Ambrosia artemisiifolia, pre-emergence, 240 h, 0 to 100 scale where 0 is no effect and 100 is complete control, read-out: Ragweed plant response rating
Summary of the method: as §2

[17] = tested on: giant foxtail (Setaria faberii); assay: Test A preemergence; details: Setaria faberi, pre-emergence, 240 h, 0 to 100 scale where 0 is no effect and 100 is complete control, read-out: Foxtail, Giant plant response rating
Summary of the method: as §2

Kochia (Kochia scoparia) [18] = assay: Test A preemergence; details: Bassia scoparia, pre-emergence, 240 h, 0 to 100 scale where 0 is no effect and 100 is complete control, read-out: Kochia plant response rating
Summary of the method: as §2

[19] = 125 g ai/ha, visual rating about 10 d after treatment
[20] = 31 g ai/ha, 0 is no effect, 100 is complete control
[21] = 125 g ai/ha, preemergence, visual injury rating, approximately 10 d

## CN1C[C@H](c2csc3c2CCC3)[C@@H](C(=O)Nc2cccc(F)c2F)C1=O [Compound 1278]
[1]
  pest or weed control at 250 g/ha: 0%
[2]
  pest or weed control at 250 g/ha: 60%
Rice (Oryra sativa)
  pest or weed control at 250 g/ha: 35%
[3]
  pest or weed control at 250 g/ha: 90%
[4]; [19]
  pest or weed control at 125 g/ha: 0%
[4]; [20]
  pest or weed control at 31 g/ha: 0%
[5]; 125 g ai/ha, visual rating about 10 d after treatment, read-out: Barnyardgrass plant response rating (0 to 100 scale, 0 no effect, 100 complete control)
  pest or weed control at 125 g/ha: 100%
[5]; 31 g ai/ha, 0 is no effect, 100 is complete control, read-out: Barnyardgrass plant response rating (0 to 100 scale)
  pest or weed control at 31 g/ha: 70%
[6]; [19]
  pest or weed control at 125 g/ha: 0%
[6]; [20]
  pest or weed control at 31 g/ha: 0%
[7]; [19]
  pest or weed control at 125 g/ha: 0%
[7]; [20]
  pest or weed control at 31 g/ha: 0%
Corn (Zea mays); [19]
  plant injury at 125 g/ha: 0%
Corn (Zea mays); [20]
  plant injury at 31 g/ha: 0%
[8]; [19]
  pest or weed control at 125 g/ha: 0%
[8]; [20]
  pest or weed control at 31 g/ha: 0%
[9]; [19]
  plant injury at 125 g/ha: 0%
[9]; [20]
  plant injury at 31 g/ha: 0%
[10]; [19]
  pest or weed control at 125 g/ha: 30%
[10]; [20]
  pest or weed control at 31 g/ha: 0%
[11]; [19]
  pest or weed control at 125 g/ha: 80%
[11]; [20]
  pest or weed control at 31 g/ha: 50%
Kochia (Kochia scoparia) [12]; [19]
  pest or weed control at 125 g/ha: 20%
Kochia (Kochia scoparia) [12]; [20]
  pest or weed control at 31 g/ha: 0%
[13]; 31 g ai/ha, Preemergence
  pest or weed control at 31 g/ha: 80%
[13]; [21]
  pest or weed control at 125 g/ha: 100%
[14]; 31 g ai/ha, Preemergence
  pest or weed control at 31 g/ha: 0%
[14]; [21]
  pest or weed control at 125 g/ha: 30%
[15]; 31 g ai/ha, Preemergence
  pest or weed control at 31 g/ha: 0%
[15]; [21]
  pest or weed control at 125 g/ha: 90%
[16]; 31 g ai/ha, Preemergence
  pest or weed control at 31 g/ha: 20%
[16]; [21]
  pest or weed control at 125 g/ha: 100%
[17]; 31 g ai/ha, Preemergence
  pest or weed control at 31 g/ha: 100%
[17]; [21]
  pest or weed control at 125 g/ha: 100%
Kochia (Kochia scoparia) [18]; 31 g ai/ha, Preemergence
  pest or weed control at 31 g/ha: 30%
Kochia (Kochia scoparia) [18]; [21]
  pest or weed control at 125 g/ha: 30%
